Reference: the NIST ThermoML archive (doi:10.1021/je4007844)

Settings: Liquid; for viscosity: Concentric cylinders viscometry

CCCCCC[n+]1ccn(C)c1.O=S(=O)([N-]S(=O)(=O)C(F)(F)F)C(F)(F)F
101.33 kPa
Settings	viscosity [mPa·s]
293.15 K	90.06
303.15 K	56.25
313.15 K	37.44
323.15 K	26.25
333.15 K	19.21
343.15 K	14.55
353.15 K	11.36
363.15 K	9.091
373.15 K	7.434

Settings	mass density [kg/m3]
293.15 K, 101.33 kPa, Vibrating tube method	1376.3
303.15 K, 101.33 kPa, Vibrating tube method	1367.1
312.6 K, 100 kPa, Bellows volumetry	1358.5
312.6 K, 10000 kPa, Bellows volumetry	1365.7
312.6 K, 20000 kPa, Bellows volumetry	1373
312.6 K, 30000 kPa, Bellows volumetry	1380.1
312.6 K, 40000 kPa, Bellows volumetry	1386.7
312.6 K, 50000 kPa, Bellows volumetry	1392.8
312.6 K, 60000 kPa, Bellows volumetry	1399
312.6 K, 70000 kPa, Bellows volumetry	1404.6
312.6 K, 80000 kPa, Bellows volumetry	1410.2
312.6 K, 90000 kPa, Bellows volumetry	1415.5
312.6 K, 100000 kPa, Bellows volumetry	1420.7
312.6 K, 110000 kPa, Bellows volumetry	1425.8
312.6 K, 120000 kPa, Bellows volumetry	1430.8
312.6 K, 130000 kPa, Bellows volumetry	1435.5
312.6 K, 140000 kPa, Bellows volumetry	1440.1
312.6 K, 150000 kPa, Bellows volumetry	1444.5
312.6 K, 160000 kPa, Bellows volumetry	1448.9
312.6 K, 170000 kPa, Bellows volumetry	1453
312.6 K, 180000 kPa, Bellows volumetry	1457.6
312.6 K, 190000 kPa, Bellows volumetry	1461.6
312.6 K, 200000 kPa, Bellows volumetry	1465.9
313.15 K, 101.33 kPa, Vibrating tube method	1358
323.15 K, 101.33 kPa, Vibrating tube method	1348.9
332.4 K, 100 kPa, Bellows volumetry	1340
332.4 K, 10000 kPa, Bellows volumetry	1348.1
332.4 K, 20000 kPa, Bellows volumetry	1355.9
332.4 K, 30000 kPa, Bellows volumetry	1363.3
332.4 K, 40000 kPa, Bellows volumetry	1370.4
332.4 K, 50000 kPa, Bellows volumetry	1377
332.4 K, 60000 kPa, Bellows volumetry	1383.2
332.4 K, 70000 kPa, Bellows volumetry	1389.3
332.4 K, 80000 kPa, Bellows volumetry	1395.1
332.4 K, 90000 kPa, Bellows volumetry	1400.5
332.4 K, 100000 kPa, Bellows volumetry	1406.3
332.4 K, 110000 kPa, Bellows volumetry	1411.5
332.4 K, 120000 kPa, Bellows volumetry	1416.5
332.4 K, 130000 kPa, Bellows volumetry	1421.3
332.4 K, 140000 kPa, Bellows volumetry	1426.1
332.4 K, 150000 kPa, Bellows volumetry	1430.9
332.4 K, 160000 kPa, Bellows volumetry	1435.4
332.4 K, 170000 kPa, Bellows volumetry	1439.7
332.4 K, 180000 kPa, Bellows volumetry	1444
332.4 K, 190000 kPa, Bellows volumetry	1448.4
332.4 K, 200000 kPa, Bellows volumetry	1452.6
333.15 K, 101.33 kPa, Vibrating tube method	1339.9
343.15 K, 101.33 kPa, Vibrating tube method	1331
352.3 K, 100 kPa, Bellows volumetry	1322.2
352.3 K, 10000 kPa, Bellows volumetry	1330.9
352.3 K, 20000 kPa, Bellows volumetry	1339.3
352.3 K, 30000 kPa, Bellows volumetry	1347.3
352.3 K, 40000 kPa, Bellows volumetry	1354.5
352.3 K, 50000 kPa, Bellows volumetry	1361.5
352.3 K, 60000 kPa, Bellows volumetry	1368.2
352.3 K, 70000 kPa, Bellows volumetry	1374.6
352.3 K, 80000 kPa, Bellows volumetry	1380.6
352.3 K, 90000 kPa, Bellows volumetry	1386.5
352.3 K, 100000 kPa, Bellows volumetry	1392
352.3 K, 110000 kPa, Bellows volumetry	1397.5
352.3 K, 120000 kPa, Bellows volumetry	1402.7
352.3 K, 130000 kPa, Bellows volumetry	1408
352.3 K, 140000 kPa, Bellows volumetry	1412.8
352.3 K, 150000 kPa, Bellows volumetry	1417.6
352.3 K, 160000 kPa, Bellows volumetry	1422.1
352.3 K, 170000 kPa, Bellows volumetry	1426.8
352.3 K, 180000 kPa, Bellows volumetry	1431.4
352.3 K, 190000 kPa, Bellows volumetry	1435.5
352.3 K, 200000 kPa, Bellows volumetry	1439.9
353.15 K, 101.33 kPa, Vibrating tube method	1322.2
363.15 K, 101.33 kPa, Vibrating tube method	1313.3
372.5 K, 100 kPa, Bellows volumetry	1304.4
372.5 K, 10000 kPa, Bellows volumetry	1313.7
372.5 K, 20000 kPa, Bellows volumetry	1322.6
372.5 K, 30000 kPa, Bellows volumetry	1330.9
372.5 K, 40000 kPa, Bellows volumetry	1338.6
372.5 K, 50000 kPa, Bellows volumetry	1346
372.5 K, 60000 kPa, Bellows volumetry	1353
372.5 K, 70000 kPa, Bellows volumetry	1359.6
372.5 K, 80000 kPa, Bellows volumetry	1366
372.5 K, 90000 kPa, Bellows volumetry	1372.1
372.5 K, 100000 kPa, Bellows volumetry	1378
372.5 K, 110000 kPa, Bellows volumetry	1383.7
372.5 K, 120000 kPa, Bellows volumetry	1389.1
372.5 K, 130000 kPa, Bellows volumetry	1394.3
372.5 K, 140000 kPa, Bellows volumetry	1399.4
372.5 K, 150000 kPa, Bellows volumetry	1404.4
372.5 K, 160000 kPa, Bellows volumetry	1409.3
372.5 K, 170000 kPa, Bellows volumetry	1414
372.5 K, 180000 kPa, Bellows volumetry	1418.5
372.5 K, 190000 kPa, Bellows volumetry	1423.1
372.5 K, 200000 kPa, Bellows volumetry	1427.4
373.15 K, 101.33 kPa, Vibrating tube method	1304.7
392.7 K, 100 kPa, Bellows volumetry	1286.8
392.7 K, 10000 kPa, Bellows volumetry	1296.8
392.7 K, 20000 kPa, Bellows volumetry	1306.3
392.7 K, 30000 kPa, Bellows volumetry	1315.1
392.7 K, 40000 kPa, Bellows volumetry	1323.4
392.7 K, 50000 kPa, Bellows volumetry	1331.1
392.7 K, 60000 kPa, Bellows volumetry	1338.5
392.7 K, 70000 kPa, Bellows volumetry	1345.4
392.7 K, 80000 kPa, Bellows volumetry	1352.1
392.7 K, 90000 kPa, Bellows volumetry	1358.3
392.7 K, 100000 kPa, Bellows volumetry	1364.5
392.7 K, 110000 kPa, Bellows volumetry	1370.3
392.7 K, 120000 kPa, Bellows volumetry	1376
392.7 K, 130000 kPa, Bellows volumetry	1381.5
392.7 K, 140000 kPa, Bellows volumetry	1386.8
392.7 K, 150000 kPa, Bellows volumetry	1391.9
392.7 K, 160000 kPa, Bellows volumetry	1397
392.7 K, 170000 kPa, Bellows volumetry	1401.8
392.7 K, 180000 kPa, Bellows volumetry	1406.5
392.7 K, 190000 kPa, Bellows volumetry	1411.1
392.7 K, 200000 kPa, Bellows volumetry	1415.7
412.7 K, 100 kPa, Bellows volumetry	1269.8
412.7 K, 10000 kPa, Bellows volumetry	1280.4
412.7 K, 20000 kPa, Bellows volumetry	1290.4
412.7 K, 30000 kPa, Bellows volumetry	1299.8
412.7 K, 40000 kPa, Bellows volumetry	1308.4
412.7 K, 50000 kPa, Bellows volumetry	1316.5
412.7 K, 60000 kPa, Bellows volumetry	1324.3
412.7 K, 70000 kPa, Bellows volumetry	1331.5
412.7 K, 80000 kPa, Bellows volumetry	1338.5
412.7 K, 90000 kPa, Bellows volumetry	1345
412.7 K, 100000 kPa, Bellows volumetry	1351.3
412.7 K, 110000 kPa, Bellows volumetry	1357.5
412.7 K, 120000 kPa, Bellows volumetry	1363.2
412.7 K, 130000 kPa, Bellows volumetry	1368.9
412.7 K, 140000 kPa, Bellows volumetry	1374.3
412.7 K, 150000 kPa, Bellows volumetry	1379.8
412.7 K, 160000 kPa, Bellows volumetry	1384.9
412.7 K, 170000 kPa, Bellows volumetry	1389.9
412.7 K, 180000 kPa, Bellows volumetry	1394.7
412.7 K, 190000 kPa, Bellows volumetry	1399.4
412.7 K, 200000 kPa, Bellows volumetry	1404
432.6 K, 100 kPa, Bellows volumetry	1252.4
432.6 K, 10000 kPa, Bellows volumetry	1263.7
432.6 K, 20000 kPa, Bellows volumetry	1274.3
432.6 K, 30000 kPa, Bellows volumetry	1284.2
432.6 K, 40000 kPa, Bellows volumetry	1293.3
432.6 K, 50000 kPa, Bellows volumetry	1301.7
432.6 K, 60000 kPa, Bellows volumetry	1309.7
432.6 K, 70000 kPa, Bellows volumetry	1317.3
432.6 K, 80000 kPa, Bellows volumetry	1324.5
432.6 K, 90000 kPa, Bellows volumetry	1331.2
432.6 K, 100000 kPa, Bellows volumetry	1337.8
432.6 K, 110000 kPa, Bellows volumetry	1344.1
432.6 K, 120000 kPa, Bellows volumetry	1350.3
432.6 K, 130000 kPa, Bellows volumetry	1356.1
432.6 K, 140000 kPa, Bellows volumetry	1361.9
432.6 K, 150000 kPa, Bellows volumetry	1367.3
432.6 K, 160000 kPa, Bellows volumetry	1372.4
432.6 K, 170000 kPa, Bellows volumetry	1377.5
432.6 K, 180000 kPa, Bellows volumetry	1382.5
432.6 K, 190000 kPa, Bellows volumetry	1387.4
432.6 K, 200000 kPa, Bellows volumetry	1392.2
452.3 K, 100 kPa, Bellows volumetry	1235.6
452.3 K, 10000 kPa, Bellows volumetry	1247.6
452.3 K, 20000 kPa, Bellows volumetry	1258.8
452.3 K, 30000 kPa, Bellows volumetry	1269.2
452.3 K, 40000 kPa, Bellows volumetry	1278.8
452.3 K, 50000 kPa, Bellows volumetry	1287.6
452.3 K, 60000 kPa, Bellows volumetry	1295.9
452.3 K, 70000 kPa, Bellows volumetry	1303.9
452.3 K, 80000 kPa, Bellows volumetry	1311.3
452.3 K, 90000 kPa, Bellows volumetry	1318.3
452.3 K, 100000 kPa, Bellows volumetry	1325.1
452.3 K, 110000 kPa, Bellows volumetry	1331.8
452.3 K, 120000 kPa, Bellows volumetry	1338
452.3 K, 130000 kPa, Bellows volumetry	1344.1
452.3 K, 140000 kPa, Bellows volumetry	1349.9
452.3 K, 150000 kPa, Bellows volumetry	1355.5
452.3 K, 160000 kPa, Bellows volumetry	1360.8
452.3 K, 170000 kPa, Bellows volumetry	1366.2
452.3 K, 180000 kPa, Bellows volumetry	1371.3
452.3 K, 190000 kPa, Bellows volumetry	1376.4
452.3 K, 200000 kPa, Bellows volumetry	1381.2
